Measurements taken from US20110082212A1, “MULTI-S[…] ANDROGEN RECEPTOR MODULATORS AND METHODS OF USE THEREOF” (priority 2002, published 2011).
Several values for one entry are separate records, joined by “and”; a condition that tells them apart may be missing. Equal entries are not always repeated.

Tests used:
[1] = test system: castrated male rats (prostate, seminal vesicles, levator ani muscle); assay: Androgenic and anabolic activity of compounds 1 and 2 in castrated rat model (organ weights); format: in vivo, Sprague-Dawley rats; details: 14 days; for Seminal Vesicles weight: intact 101 ± 26.8, castrated 8.1 ± 1.8; for Levator Ani Muscle weight: intact 102 ± 8.1, castrated 40.9 ± 9.4; for Prostate weight: intact 100 ± 14.3, castrated 6.2 ± 2.5
Excerpt: Intact Controls (not castrated, untreated) and Castrated Controls (castrated, untreated) were used as the control groups.

androgen receptor = target: T1, androgen receptor (Rattus norvegicus, UniProt P15207); assay: Androgen receptor binding affinities; details: for RBA: relative binding affinity, androgen receptor
T1 construct: from tissue; host or cells: Rat ventral prostate cytosol
T1 sequence (P15207 1-902): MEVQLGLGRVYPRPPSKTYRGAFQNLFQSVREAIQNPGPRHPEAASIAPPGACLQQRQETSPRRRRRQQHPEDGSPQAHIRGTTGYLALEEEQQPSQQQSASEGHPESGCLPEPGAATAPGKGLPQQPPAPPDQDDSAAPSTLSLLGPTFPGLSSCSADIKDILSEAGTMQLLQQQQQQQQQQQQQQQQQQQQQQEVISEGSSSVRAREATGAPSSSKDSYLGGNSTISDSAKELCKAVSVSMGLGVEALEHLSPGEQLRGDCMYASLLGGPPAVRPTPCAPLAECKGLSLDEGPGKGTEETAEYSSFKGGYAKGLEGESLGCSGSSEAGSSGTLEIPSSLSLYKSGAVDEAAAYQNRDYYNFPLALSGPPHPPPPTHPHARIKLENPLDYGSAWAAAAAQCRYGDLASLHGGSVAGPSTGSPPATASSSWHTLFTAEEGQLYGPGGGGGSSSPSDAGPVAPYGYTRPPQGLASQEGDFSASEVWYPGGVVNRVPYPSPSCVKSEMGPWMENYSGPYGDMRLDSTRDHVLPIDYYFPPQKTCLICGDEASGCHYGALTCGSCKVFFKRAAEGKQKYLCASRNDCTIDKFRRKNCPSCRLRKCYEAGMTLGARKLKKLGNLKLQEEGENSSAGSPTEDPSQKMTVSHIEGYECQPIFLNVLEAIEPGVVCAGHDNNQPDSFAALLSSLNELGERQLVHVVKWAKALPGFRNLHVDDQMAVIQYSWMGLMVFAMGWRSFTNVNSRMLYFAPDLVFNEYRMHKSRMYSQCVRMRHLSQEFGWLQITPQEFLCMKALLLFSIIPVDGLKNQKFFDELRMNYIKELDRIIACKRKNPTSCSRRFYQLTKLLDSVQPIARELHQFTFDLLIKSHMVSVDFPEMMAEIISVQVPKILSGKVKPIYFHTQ

LH and FSH levels = assay: Serum LH and FSH levels in castrated rats treated with compound 7 (RIA); format: in vivo, SD rats
Description: (§1) Forty-five male SD rats, weighing approximately 200 g, were randomly divided into nine groups with five rats per group. One day before treatment, groups 1 through 8 were castrated via a scrotal incision under anesthesia. Group 9 served as an intact vehicle control. Compound 7 was dissolved in a vehicle containing DMSO (5%, v/v) in PEG 300. Groups 1 through 7 received daily subcutaneous injections of compound 7 at a dose rate of 0.05, 0.1, 0.3, 0.5, 0.75, 1, and 3 mg/day, respectively. Groups 8 and 9 received vehicle. […] This dose rate was chosen based on the results from the aforementioned study in castrated rats. Rats were sacrificed after 14 days treatment. Serum samples were collected and stored at −80° C. The ventral prostate, seminal vesicles, and levator ani muscle were removed, cleared of extraneous tissue, and weighed. All organ weights were normalized to body weight and compared. The weights of the prostate and seminal vesicles were used to evaluate androgenic activity, while the levator ani muscle weight was used as a measurement of anabolic activity.

[2] = test system: castrated male rats (ventral prostate, seminal vesicles, levator ani muscle); assay: Androgenic and anabolic activity of compound 7 in castrated male rats (organ weights, dose response); format: in vivo, SD rats; details: 14 days
Description: as §1

[3] = test system: intact male rats (ventral prostate, seminal vesicles, levator ani muscle); assay: Pharmacologic activity of TP and compound 7 in intact male rats (organ weights); format: in vivo; details: 0.5 mg/day, 14 days
Description: as §1

serum testosterone = assay: Serum testosterone concentrations in intact male rats (EIA); format: in vivo; details: 0.5 mg/day, 14 days, individual animals (n=5/group), detection limit 0.04 ng/mL, intact rats 4.47±1.66
Description: as §1

[4] = daily s.c., nonlinear regression of dose-response

For `C[C@](O)(COc1ccc(F)c(F)c1)C(=O)Nc1ccc([N+](=O)[O-])c(C(F)(F)F)c1` [Compound 1], the “levator ani muscle weight compared with intact animals” value ([1]; 1 mg/d) was “maintain the levator ani muscle weight of castrated animals in the same level as that of intact animals”, the “Seminal Vesicles weight” value ([1]; 1 mg/day via osmotic pump) was 30.9 ± 5.7 and the “Levator Ani Muscle weight” value ([1]; 1 mg/day via osmotic pump) was 122.5 ± 10.4. For the same compound, the Prostate weight ([1]; 1 mg/day via osmotic pump, normalized to body weight) was 40.3 ± 10.0, the Prostate weight ([1]; 1 mg/day, daily injection) was 33.1 ± 8.5 and the “Seminal Vesicles weight” value ([1]; 1 mg/day, daily injection) was 23.6 ± 8.8. The “Levator Ani Muscle weight” value ([1]; 1 mg/day, daily injection) was 112.8 ± 9.4 and the RBA (androgen receptor) was 17.6%.
With `C[C@](O)(COc1c(F)c(F)c(F)c(F)c1F)C(=O)Nc1ccc([N+](=O)[O-])c(C(F)(F)F)c1` [Compound 2] the Prostate weight ([1]; 1 mg/day, daily injection) was 7.2 ± 1.4, the “Seminal Vesicles weight” value ([1]; 1 mg/day, daily injection) was 7.2 ± 0.9 and the “Levator Ani Muscle weight” value ([1]; 1 mg/day, daily injection) was 55.83 ± 2.84. For the same compound, the RBA (androgen receptor) was 13.3%.
With `C[C@](O)(COc1ccc(F)c(F)c1F)C(=O)Nc1ccc([N+](=O)[O-])c(C(F)(F)F)c1` [Compound 3] the Ki (androgen receptor) was 11.3 ± 1.1 nM and the RBA (androgen receptor) was 3.1%.
`C[C@](O)(COc1ccc(F)cc1F)C(=O)Nc1ccc([N+](=O)[O-])c(C(F)(F)F)c1` [Compound 5] showed a Ki (androgen receptor) of 3.2 ± 0.3 nM and an RBA (androgen receptor) of 10.9%.
For `C[C@](O)(COc1cc(F)cc(F)c1F)C(=O)Nc1ccc([N+](=O)[O-])c(C(F)(F)F)c1` [Compound 6], the Ki (androgen receptor) was 9.1 ± 0.6 nM and the RBA (androgen receptor) was 3.4%.
With `C[C@](O)(COc1ccc(Cl)c(F)c1)C(=O)Nc1ccc([N+](=O)[O-])c(C(F)(F)F)c1` [Compound 7] the “lowest dose reversing FSH levels back to physiologic levels” value (LH and FSH levels) was 0.5 mg/day, the “lowest dose reversing LH levels back to physiologic levels” value (LH and FSH levels) was 0.3 mg/day and the FSH (LH and FSH levels; 0.1 mg/day, intact control 11.2 ± 2.0, castrated control 63.4 ± 5.0) was 53.0 ± 5.1 ^I ng/mL. For the same compound, the LH (LH and FSH levels; 0.1 mg/day, intact control <0.2, castrated control 8.4 ± 2.5) was 3.6 ± 0.8 ^I ng/mL, the FSH (LH and FSH levels; 0.3 mg/day) was 26.6 ± 8.9 ^I ng/mL and the LH (LH and FSH levels; 0.3 mg/day) was <0.2 ^C ng/mL. The FSH (LH and FSH levels; 0.5 mg/day) was 12.4 ± 1.1 ^C ng/mL, the LH (LH and FSH levels; 0.5 mg/day) was <0.2 ^C ng/mL and the FSH (LH and FSH levels; 0.75 mg/day) was 12.8 ± 1.6 ^C ng/mL. For the same compound, the LH (LH and FSH levels; 0.75 mg/day) was <0.2 ^C ng/mL, the “organ weights (ventral prostate, seminal vesicles, levator ani muscle) restored relative to intact controls” value ([2]; 3 mg/day s.c.) was “up to 130%” and the “ED50 in levator ani muscle” value [2, 4] was 0.17 ± 0.04 mg/day. For the same compound, the ED50 in prostate [2, 4] was 0.77 ± 0.06 mg/day, the “ED50 in seminal vesicle” value [2, 4] was 0.88 ± 0.14 mg/day and the Ki (androgen receptor) was 4.9 ± 0.3 nM. For the same compound, the RBA (androgen receptor) was 9.1%, the “effect on levator ani muscle weight” value [3] was “maintained levator ani muscle weight” and the “effect on size of prostate and seminal vesicles” value [3] was “reduced the size of the prostate and seminal vesicles”. For the same compound, the serum testosterone concentration (serum testosterone) was < 0.04 ng/mL and 0.11 ng/mL and 0.46 ng/mL.
With `C[C@](O)(COc1ccc(F)c(Cl)c1)C(=O)Nc1ccc([N+](=O)[O-])c(C(F)(F)F)c1` [Compound 8] the Ki (androgen receptor) was 10.3 ± 2 nM and the RBA (androgen receptor) was 4.3%.
For `C[C@](O)(COc1ccc(Cl)c(Cl)c1)C(=O)Nc1ccc([N+](=O)[O-])c(C(F)(F)F)c1` [Compound 9], the Ki (androgen receptor) was 1 ± 0.09 nM and the RBA (androgen receptor) was 20.2%.
Compound `C[C@](O)(COc1ccccc1F)C(=O)Nc1ccc([N+](=O)[O-])c(C(F)(F)F)c1` [Compound 10] has a Ki (androgen receptor) of 3.4 ± 0.34 nM and an RBA (androgen receptor) of 5.9%.
`C[C@](O)(COc1c(F)cc(F)cc1F)C(=O)Nc1ccc([N+](=O)[O-])c(C(F)(F)F)c1` [Compound 11] showed a Ki (androgen receptor) of 10.3 ± 2 nM.
In the case of `CCC(=O)O[C@H]1CC[C@H]2[C@@H]3CCC4=CC(=O)CC[C@]4(C)[C@H]3CC[C@]12C` [TP, testosterone propionate, reference compound], the “effect on growth of prostate, seminal vesicles and levator ani muscle” value [3] is reported as “stimulated growth in all three organs”.
